Values joined by “and” are separate entries in the source; they are usually repeats but may differ in a detail not shown here. Identical values can stand only once. “Also recorded” adds a separate entry of the source.
Legend:
carbonic anhydrase = experiment: in vitro carbonic anhydrase activity, simplified method of Maren; type: biochemical; set-up: averaged I50 (concentration of drug causing 50% inhibition of enzyme): unit not given here
Method: Water was added to the reaction vessel which was kept in a water bath at 0±0.25° C. The reaction cell was constantly purged with CO2 at a rate of 200 to 250 ml/min. Each reagent was added at a specified time and in a specified order. […] The time required for the reaction begins with the addition of carbonate buffer and was completed with the indicator changed from red to yellow. […] Reaction time was the time for the uncatalyzed reaction time. […] By varying the time before adding the carbonate buffer and then determining the reaction time, the equilibration time can be accurately determined. The reaction time was averaged over three determinations. […] (If two enzyme units are added, then the concentration of drug yielding a reaction time corresponding to the activity of one unit is taken as the I50). An enzyme unit (e.u.) was calculated from: [formula]

[1] = tested on: intraocular pressure (IOP) of adult white rabbits; experiment: Salted Rabbit Test: IOP after topical 1% w/v suspension; type: in vivo; settings: for IOP change, individual rabbit (Rabbit No. 1-6): 1% w/v suspension, 3 drops
Method: In particular, an initial drop from the test formulation followed by two drops at one minute intervals are applied to one eye of each of six adult white rabbits that had been maintained ona diet containing 0.5% sodium. The treated eye was selected randomly, whereas, the fellow eye received placebo; the observer was masked. Results identified a small but significant reduction of intraocular pressure in the treated eye at 30, 60 and 120 minutes.
One drop, followed by two drops each at one minute intervals, was applied to one eye of normal adult white rabbits. Six rabbits were used in the experiment. The treated eye was selected randomly, whereas, the fellow eye received placebo. The observer was masked. The intraocular pressure (IOP) was measured with a Digilab Pneumotonometer, initially and every ten minutes for 120 minutes following instillation of the anti-glaucoma agent. A drop of local anesthetic was applied just prior to making the measurement.

CNS(=O)(=O)c1nnc(NC(C)=O)s1 [methyl acetazolamide, N-methyl-2-acetylamino-1,3,4-thiadiazole-5-sulfonamide]
in vitro carbonic anhydrase inhibition, in words (carbonic anhydrase): inactive in vitro | activity relative to acetazolamide (ratio of I50) (carbonic anhydrase; 0.52/0.00914): 1/60 | averaged I50 (concentration of drug causing 50% inhibition of enzyme) (carbonic anhydrase; heparinized blood, 2 enzyme units, 0 C): 0.520 | IOP change, individual rabbit (Rabbit No. 1-6) ([1]; 10 min): -4 mm Hg and -2 mm Hg and 0 mm Hg | IOP change, individual rabbit (Rabbit No. 1-6) ([1]; 20 min): -2 mm Hg and 0 mm Hg and -4 mm Hg and -3 mm Hg and 1 mm Hg | IOP change, individual rabbit (Rabbit No. 1-6) ([1]; 30 min): -3 mm Hg and -2 mm Hg and -1 mm Hg | IOP change, individual rabbit (Rabbit No. 1-6) ([1]; 40 min): 0 mm Hg and -1 mm Hg | IOP change, individual rabbit (Rabbit No. 1-6) ([1]; 50 min): -5 mm Hg and -2 mm Hg and -1 mm Hg and 0 mm Hg | IOP change, individual rabbit (Rabbit No. 1-6) ([1]; 60 min): -3 mm Hg and 1 mm Hg and -2 mm Hg and -1 mm Hg | IOP change, individual rabbit (Rabbit No. 1-6) ([1]; 70 min): -4 mm Hg and -2 mm Hg and 0 mm Hg and 2 mm Hg | IOP change, individual rabbit (Rabbit No. 1-6) ([1]; 80 min): -3 mm Hg and -4 mm Hg and 1 mm Hg and 0 mm Hg | IOP change, individual rabbit (Rabbit No. 1-6) ([1]; 90 min): -2 mm Hg and 1 mm Hg and -1 mm Hg and -4 mm Hg and 0 mm Hg and 3 mm Hg | IOP change, individual rabbit (Rabbit No. 1-6) ([1]; 100 min): -4 mm Hg and 0 mm Hg and -3 mm Hg and -2 mm Hg | IOP change, individual rabbit (Rabbit No. 1-6) ([1]; 110 min): -2 mm Hg and 0 mm Hg and 1 mm Hg | IOP change, individual rabbit (Rabbit No. 1-6) ([1]; 120 min): -3 mm Hg and 0 mm Hg and -1 mm Hg | reduction of intraocular pressure after topical administration, in words ([1]; rabbit, eye drops): lowering of IOP was statistically significant at all time intervals; also recorded: able to reduce intraocular pressure

— patent publication US4629738A, “Non-classical topical treatment for glaucoma” (University of Iowa Research Foundation, priority 1984, dated 1986)
